Like-named read-outs stand apart in the source and are kept apart here.
Legend:
[1] = tested on: Mycosphaerella graminicola; Anamorph: Septoria tritici; Bayer Code SEPTTR; experiment: Leaf blotch of wheat, foliar fungicide treatment, one day protectant (1DP) or three day curative (3DC); format: in vivo, Septoria tritici on wheat plants (variety Yuma); settings: Zymoseptoria tritici
[2] = tested on: Cercospora beticola; Bayer Code CERCBE; experiment: Leaf spot of sugar beets; format: in vivo, Cercospora beticola on sugar beets (variety HH-88); settings: 24 h, % disease control rating, one day protectant; for pest or weed control at 25 ppm: read-out: CERCBE 1 DP 25 ppm; for pest or weed control at 75 ppm: read-out: CERCBE 1 DP 75 ppm
[3] = tested on: Venturia inaequalis; Bayer Code VENTIN; experiment: Apple scab; format: in vivo; settings: 24 h, % disease control rating, one day protectant; for pest or weed control at 25 ppm: read-out: VENTIN 1 DP 25 ppm; for pest or weed control at 75 ppm: read-out: VENTIN 1 DP 75 ppm
[4] = 24 h, one day protectant (1DP), rating of percent disease control, read-out: SETTTR 1DP 25 ppm
[5] = 24 h, one day protectant (1DP), rating of percent disease control, read-out: SEPTTR 1DP 100 ppm
[6] = 72 h, three day curative (3DC), rating of percent disease control, read-out: SEPTTR 3DC 25 ppm
[7] = 72 h, three day curative (3DC), rating of percent disease control, read-out: SEPTTR 3DC 100 ppm
[8] = 24 h, one day protectant (1DP), percent disease control rating, read-out: SETTTR 1DP 25 ppm
[9] = 24 h, one day protectant (1DP), percent disease control rating, read-out: SEPTTR 1DP 100 ppm
[10] = 72 h, three day curative (3DC), percent disease control rating, read-out: SEPTTR 3DC 25 ppm
[11] = 72 h, three day curative (3DC), percent disease control rating, read-out: SEPTTR 3DC 100 ppm
[12] = 24 h, one day protectant, rating of percent disease control, read-out: SETTTR 1DP 25 ppm
[13] = 24 h, one day protectant, rating of percent disease control, read-out: SEPTTR 1DP 100 ppm

Structure (SMILES) | pest or weed control at 25 ppm [1, 4] | pest or weed control at 100 ppm [1, 5] | pest or weed control at 25 ppm [1, 6] | pest or weed control at 100 ppm [1, 7] | pest or weed control at 25 ppm [2] | pest or weed control at 75 ppm [2] | pest or weed control at 25 ppm [3] | pest or weed control at 75 ppm [3] | pest or weed control at 25 ppm [1, 8] | pest or weed control at 100 ppm [1, 9] | pest or weed control at 25 ppm [1, 10] | pest or weed control at 100 ppm [1, 11] | pest or weed control at 25 ppm [1, 12] | pest or weed control at 100 ppm [1, 13] | pest or weed control at 25 ppm ([1]; 72 h, three day curative, rating of percent disease control, read-out: SEPTTR 3DC 25 ppm) | pest or weed control at 100 ppm ([1]; 72 h, three day curative, rating of percent disease control, read-out: SEPTTR 3DC 100 ppm) | pest or weed control at 50 ppm ([1]; 24 h, % disease control rating, one day protectant, 50 ppm) | pest or weed control at 200 ppm ([1]; 24 h, % disease control rating, one day protectant, 200 ppm)
Cc1c(COc2ncc(F)c(N)n2)cnn1C [Compound 800] | 76 to 100% | 76 to 100% | 76 to 100% | 76 to 100% | 76 to 100% | 76 to 100% | 76 to 100% | 76 to 100% |  |  |  |  |  |  |  |  |  | 
Nc1nc(OCc2coc(Cc3ccccc3)c2)ncc1F [Compound 69] |  |  |  |  | 0 to 25% | 26 to 50% | 51 to 75% | 76 to 100% | 76 to 100% | 76 to 100% | 51 to 75% | 76 to 100% |  |  |  |  |  | 
CCC(Nc1nc(OCc2ccc(F)cc2)ncc1F)OC (stereo not drawn) [Compound 14, [5-Fluoro-2-(4-fluorobenzyloxy)pyrimidin-4-yl](1-methoxypropyl)amine] |  |  |  |  | 0 to 25% | 0 to 25% | 76 to 100% | 76 to 100% | 76 to 100% | 76 to 100% | 76 to 100% | 76 to 100% |  |  |  |  |  | 
CCOCNc1nc(OCc2cccs2)ncc1F [Compound 343] | 26 to 50% | 76 to 100% | 76 to 100% | 76 to 100% | 76 to 100% | 76 to 100% | 76 to 100% | 51 to 75% |  |  |  |  |  |  |  |  |  | 
CC(Oc1ncc(F)c(N)n1)c1ccc(C(F)(F)F)nc1 (stereo not drawn) [Compound 356] | 26 to 50% | 51 to 75% | 26 to 50% | 51 to 75% | 51 to 75% | 0 to 25% | 51 to 75% | 26 to 50% |  |  |  |  |  |  |  |  |  | 
CC(C)(c1ccccc1)c1cccc(COc2ncc(F)c(N)n2)c1 [Compound 687] |  |  |  |  | 0 to 25% | 0 to 25% | 26 to 50% | 51 to 75% |  |  |  |  | 26 to 50% | 76 to 100% | 0 to 25% | 0 to 25% |  | 
Nc1nc(OCCn2cncn2)ncc1F [Compound 933] |  |  |  |  | 26 to 50% | 26 to 50% | 0 to 25% | 26 to 50% |  |  |  |  |  |  |  |  | 26 to 50% | 51 to 75%
Nc1nc(Oc2cccc(Cl)c2)ncc1F [Compound 593] |  |  |  |  | 26 to 50% | 51 to 75% | 76 to 100% | 76 to 100% |  |  |  |  | 0 to 25% | 51 to 75% |  |  |  | 
CCCNC(=O)Nc1nc(OCc2cccc(C#N)c2)ncc1F [Compound 163] |  |  |  |  | 0 to 25% | 0 to 25% | 0 to 25% | 26 to 50% | 0 to 25% | 0 to 25% | 0 to 25% | 0 to 25% |  |  |  |  |  | 
CCOC(=O)COc1ncc(F)c(N)n1 [Compound 221] |  |  |  |  | 26 to 50% | 51 to 75% | 0 to 25% | 26 to 50% |  |  |  |  |  |  |  |  |  | 
Cc1ccccc1C(C)Oc1ncc(F)c(N)n1 (stereo not drawn) [Compound 313] | 76 to 100% | 76 to 100% | 76 to 100% | 76 to 100% |  |  | 26 to 50% | 51 to 75% |  |  |  |  |  |  |  |  |  | 
CN(C)/C=N/c1nc(OCc2ccccc2)ncc1F [Compound 209] | 76 to 100% | 76 to 100% | 76 to 100% | 76 to 100% |  |  | 51 to 75% | 76 to 100% |  |  |  |  |  |  |  |  |  | 
